Assay results reported in BindingDB's records for patent US20250213571 (Alumis, 2025).

Biological target: T1, Non-receptor tyrosine-protein kinase TYK2 [556-888] (Homo sapiens, UniProt P29597)
T1 construct: 556-888
Assay: TYK2 JH2 Domain Binding Assay
Procedure: Binding constants for the compounds described herein against the JH2 domain were determined by the following protocol for a KINOMEscan assay (DiscoveRx). A fusion protein of a partial length construct of human TYK2 (JH2domain-pseudokinase) (amino acids G556 to D888 based on reference sequence NP_003322.3) and the DNA binding domain of NFkB was expressed in transiently transfected HEK293 cells. From these HEK 293 cells, extracts were prepared in M-PER extraction buffer (Pierce) in the presence of Protease Inhibitor Cocktail Complete (Roche) and Phosphatase Inhibitor Cocktail Set II (Merck) per manufacturers' instructions. The TYK2 (JH2domain-pseudokinase) fusion protein was labeled with a chimeric double-stranded DNA tag containing the NFkB binding site fused to an amplicon for qPCR readout, which was added directly to the expression extract (the final concentration of DNA-tag in the binding reaction is 0.1 nM).

T1 sequence (P29597 556-888): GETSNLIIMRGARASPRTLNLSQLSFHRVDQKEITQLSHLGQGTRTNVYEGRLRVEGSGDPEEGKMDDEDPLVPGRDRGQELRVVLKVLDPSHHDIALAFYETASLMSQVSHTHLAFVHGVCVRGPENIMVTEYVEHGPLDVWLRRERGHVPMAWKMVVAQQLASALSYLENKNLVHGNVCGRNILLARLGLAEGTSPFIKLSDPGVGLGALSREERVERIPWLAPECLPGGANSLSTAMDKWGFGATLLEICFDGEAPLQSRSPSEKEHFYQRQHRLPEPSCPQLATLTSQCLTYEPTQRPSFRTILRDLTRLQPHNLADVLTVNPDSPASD

Kd: < 10 nM
Compound: CNc1cc2nn3c(cnc13)C(=O)N[C@H](C)COCc1cc(c3c(c1)ncn3C)N2 [US20250213571, Compound 8]
